Reference: ChEMBL document CHEMBL6127083, “A mini-review on integrase inhibitors: The cornerstone of next-generation HIV treatment” (Eur J Med Chem, 2024)

Experiments:
[1] = molecular target: T1, Human immunodeficiency virus type 1 integrase (Human immunodeficiency virus 1, UniProt Q7ZJM1); assay: Inhibition of HIV-1 integrase
[2] = molecular target: Human immunodeficiency virus type 1 reverse transcriptase (Human immunodeficiency virus 1, UniProt Q72547); assay: Inhibition of recombinant HIV-1 reverse transcriptase associated RNase H extracted from Escherichia coli BL21 (DE3) by microplate reader analysis
[3] = test system: Human immunodeficiency virus 1; assay: Antiviral activity against HIV-1 IIIB infected in human MT2 cells assessed as reduction in virus induced cytopathic effect incubated overnight by ELISA method; assay type: functional, organism-based; settings: Human immunodeficiency virus 1, 3B
[4] = molecular target: T1, Human immunodeficiency virus type 1 integrase; assay: Inhibition of HIV-1 integrase incubated for 30 mins by strand transfer activity
[5] = Half life in rat; assay type: ADME; settings: in vivo
[6] = test system: Human immunodeficiency virus 1; assay: Antiviral activity against HIV1 IIIB harboring S230N mutant infected in MT4 cells assessed as reduction in virus induced cytopathic effect incubated for 5 days by MTT assay; assay type: functional, organism-based; settings: Human immunodeficiency virus 1, IIIB, MT4, 120 h
[7] = test system: Human immunodeficiency virus 1; assay: Antiviral activity against HIV1 IIIB harboring N155H mutant infected in MT4 cells assessed as reduction in virus induced cytopathic effect incubated for 5 days by MTT assay; assay type: functional, organism-based; settings: Human immunodeficiency virus 1, IIIB, MT4, 120 h
[8] = Inhibition of wild type HIV integrase strand transfer activity; set-up: species or system Human immunodeficiency virus
[9] = test system: Human immunodeficiency virus 1; assay: Antiviral activity against HIV-1 3B infected in human MT4 cells assessed as reduction in viral replication incubated for 5 days by MTT assay; assay type: functional, organism-based; settings: Human immunodeficiency virus 1, 3B, MT4, 120 h
[10] = molecular target: Human immunodeficiency virus type 1 integrase (Human immunodeficiency virus 1) (UniProt Q7ZJM1); assay: Inhibition of HIV-1 integrase at 20 uM relative to control
Sequence of Human immunodeficiency virus type 1 integrase (Human immunodeficiency virus 1) (Q7ZJM1 as listed by the source): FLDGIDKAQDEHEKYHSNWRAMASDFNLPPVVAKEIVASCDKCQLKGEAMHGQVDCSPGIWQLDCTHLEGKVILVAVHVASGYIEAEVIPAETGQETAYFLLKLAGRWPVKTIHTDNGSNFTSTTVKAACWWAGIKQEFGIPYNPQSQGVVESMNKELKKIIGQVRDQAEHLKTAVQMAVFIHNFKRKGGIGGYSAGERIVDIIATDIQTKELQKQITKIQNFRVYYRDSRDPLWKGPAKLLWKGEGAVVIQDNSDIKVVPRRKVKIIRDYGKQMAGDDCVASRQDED

[11] = molecular target: Human immunodeficiency virus type 1 integrase (Human immunodeficiency virus 1) (UniProt Q7ZJM1); assay: Inhibition of HIV-1 integrase at 100 uM relative to control
[12] = Oral bioavailability in rat at 2 mg/kg by LC-MS/MS analysis; assay type: ADME, organism-based; settings: in vivo
[13] = molecular target: T1, Human immunodeficiency virus type 1 integrase; assay: Inhibition of HIV-1 integrase strand transfer activity
[14] = test system: Human immunodeficiency virus 1; assay: Antiviral activity against HIV1 harboring E138K mutant infected in MT4 cells assessed as reduction in virus induced cytopathic effect incubated for 5 days by MTT method; assay type: functional, organism-based; settings: Human immunodeficiency virus 1, MT4, 120 h
[15] = Cytotoxicity against human TZM-bl cells assessed as reduction in cell viability incubated for 48 hrs by MTT assay; assay type: toxicity, cell-based
[16] = test system: Human immunodeficiency virus 1; assay: Antiviral activity against HIV-1 IIIB infected in human MT4 cells assessed as protection against virus induced cytopathic effect; assay type: functional, organism-based; settings: Human immunodeficiency virus 1, IIIB
[17] = test system: Human immunodeficiency virus 1; assay: Antiviral activity against HIV1 IIIB harboring E138K mutant infected in MT4 cells assessed as reduction in virus induced cytopathic effect incubated for 5 days by MTT assay; assay type: functional, organism-based; settings: Human immunodeficiency virus 1, IIIB, MT4, 120 h
[18] = test system: Human immunodeficiency virus 1; assay: Antiviral activity against HIV-1 3B infected in human MT4 cells assessed as reduction in virus-induced cytopathic effect measured for 5 days by MTT assay; assay type: functional, organism-based; settings: Human immunodeficiency virus 1, 3B, MT4, 120 h

T1 sequence (Q7ZJM1 whole entry): as the sequence (Q7ZJM1 as listed by the source) above

CC(C)Oc1ccc(Cc2ccccc2)cc1C(=O)CC(=O)C(=O)O
IC50 [1]: 0.1 µM

O=C(NCc1ccccc1)C1C(=O)N(O)C(=O)c2ccccc21 (centres undefined)
IC50 [2]: 0.36 µM

O=C(O)/C(O)=C/C(=O)c1ccc(OCc2ccccc2COc2cccc(C(=O)/C=C(\O)C(=O)O)c2)cc1
EC50 [3]: 39 µM

CCOC(=O)c1cc2cc(NC(=O)c3cnccn3)ccc2[nH]1
IC50 [4]: 11.7 µM

C[C@@H]1CCO[C@H]2Cn3cc(C(=O)NCc4ccc(F)cc4F)c(=O)c(O)c3C(=O)N12 [DOLUTEGRAVIR]
half-life [5]: 6.2 h

O=C(O)/C(O)=C/C(=O)c1ccc(C(c2cccc(C(=O)/C=C(\O)C(=O)O)c2)c2ccccc2F)cc1 (centres undefined)
EC50 [3]: 17 µM

CC(C)Oc1ccc(Cc2ccccc2)cc1C(=O)/C=C(\O)C(=O)O
IC50 [1]: < 0.1 µM

CCCCCn1c(=O)c(C(=O)Nc2cccc([N+](=O)[O-])c2O)c(O)c2ccccc21
IC50 [1]: 9 µM

CC1COC2(C1)[C@H](C)n1cc(C(=O)NCc3ccc(F)cc3F)c(=O)c(O)c1C(=O)C2(C)C (some centres undefined)
IC50 [1]: 0.14 µM

O=C(O)c1[nH]c2ccc([N+](=O)[O-])cc2c1COCc1ccc(C(F)(F)F)cc1
IC50 [4]: 10.5 µM

CC(C)N1CCn2cc(C(=O)NCc3ccc(F)cc3F)c(=O)c(O)c2C1=O
IC50 [6]: 3 µM
IC50 [7]: 5 µM
IC50 [8]: 1.7 µM

N#CCCc1cccc(C(=O)CC(=O)C(=O)O)c1
IC50 [9]: > 25 µM

O=C(O)c1cc2ccc(Nc3ccc(F)cc3)cc2[nH]1
IC50 [4]: 3.11 µM

CC1COC2(C1)Cn1cc(C(=O)NCc3ccc(F)cc3F)c(=O)c(O)c1C(=O)C2(C)C (centres undefined)
IC50 [1]: 0.17 µM

COC(=O)/C(O)=C/C(=O)c1cc2cc3c(cc2n1-c1ccccc1)OCO3
EC50 [3]: 4.29 µM

COc1ccc2[nH]c(=O)c(CNC3CCCC3)cc2c1
inhibition [10]: 39.9%

O=C(O)/C(O)=C/C(=O)c1cc2ccccc2n1-c1ccccc1
EC50 [3]: 4.29 µM

NNC(=O)c1ncn(-c2ccc(Br)cc2)c1-c1cccc(F)c1
inhibition [11]: 50%

O=C(O)c1ccc2ccc(/C=C/c3cc(O)c(O)c(O)c3)nc2c1O
IC50 [1]: 1.2 µM

Cc1ccc(CCOc2ccc(-c3c(C)nc(C)c([C@H](OC(C)(C)C)C(=O)O)c3N3CCC(C)(C)CC3)cc2)cc1
bioavailability [12]: 52%

C[C@H]1CO[C@@H]2Cn3cc(C(=O)NCc4ccc(F)cc4F)c(=O)c(O)c3C(=O)N12 [CABOTEGRAVIR]
IC50 [13]: 1.8 µM
EC50 [14]: 4.77 µM

Cn1c(=O)c(C(=O)O)c(O)c2cc(-c3ccc(F)cc3)ccc21
IC50 [1]: 0.9 µM

COc1ccc(-c2ccc3c(-c4ccc(F)cc4F)cn(C)c3n2)cc1
CC50 at 48 h [15]: 49.3 µM

O=C(CCC(=O)/C(O)=C/C(=O)c1cccc(Cc2ccccc2F)c1)/C(O)=C/C(=O)c1cccc(Cc2ccccc2F)c1
EC50 [16]: 0.2 µM

CCOC(=O)c1[nH]c2ccccc2c1Nc1ccccc1OC
IC50 [4]: 10.1 µM

O=C(NCc1c(F)cc(F)cc1F)c1cn2c(c(O)c1=O)C(=O)N1[C@H]3CC[C@H](C3)O[C@@H]1C2 [BICTEGRAVIR]
IC50 [13]: 2.4 µM

O=C(O)c1cc2ccccc2[nH]1 [INDOLE-2-CARBOXYLIC ACID]
IC50 [4]: 32.3 µM

O=C(NCc1ccc(O)c(O)c1)c1ccc2ccc(C(=O)O)c(O)c2n1
IC50 [1]: 1 µM

CC1COC2(C1)Cn1cc(C(=O)NCc3cccc(Cl)c3F)c(=O)c(O)c1C(=O)C2(C)C (centres undefined)
IC50 [1]: 1.23 µM

COC(=O)C1C(=O)N(O)C(=O)c2ccccc21 (centres undefined)
IC50 [2]: 0.06 µM

[N-]=[N+]=NCc1cc(CN=[N+]=[N-])cc(C(=O)CC(=O)C(=O)O)c1
IC50 [9]: 5 µM

COc1ccc(C(=O)CC(=O)C(=O)O)cc1CN=[N+]=[N-]
IC50 [9]: > 25 µM

[N-]=[N+]=NCc1ccc(C(=O)CC(=O)C(=O)O)cc1CN=[N+]=[N-]
IC50 [9]: 14.3 µM

CC(C)n1ccn2cc(C(=O)NCc3ccc(F)cc3F)c(=O)c(O)c2c1=O
IC50 [6]: 4.8 µM
IC50 [7]: 4.3 µM
IC50 [8]: 3.8 µM
EC50 [17]: 0.05 µM

Cn1cc(-c2ccc3c(c2)OCO3)c2ccc(-c3ccncc3)nc21
CC50 at 48 h [15]: > 200 µM

O=C(O)/C(O)=C/C(=O)c1nc2ccccc2n1Cc1ccccc1F
EC50 [18]: 40 µM

[N-]=[N+]=NCc1cccc(C(=O)CC(=O)C(=O)O)c1
IC50 [9]: 2.1 µM

O=C(O)/C(O)=C/C(=O)c1cccc(Cc2ccccc2F)c1
EC50 [16]: 0.02 µM

CC(C)Cn1ccn2cc(C(=O)NCc3ccc(F)cc3F)c(=O)c(O)c2c1=O
IC50 [6]: 4.7 µM
IC50 [7]: 3.6 µM
IC50 [8]: 3 µM
EC50 [17]: 0.06 µM

O=c1cc(-c2ccc(O)c(O)c2)oc2cc(O[C@@H]3O[C@H](CO)[C@@H](O)[C@H](O)[C@H]3OS(=O)(=O)O)cc(O)c12
IC50 [1]: 0.4 µM
